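Test compounds were applied to cells in 96-well plates for 48 hours at 5 doses. Definition used: TGI = concentration required for complete inhibition of growth.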
Experiments:
Experiment in all cases: NCI anticancer screen, dose series, 48 h
[1] = tested on: KM20L2 colon
[2] = tested on: 786-0 renal
[3] = tested on: SN12C renal
[4] = tested on: SF-539 CNS
[5] = tested on: A498 renal
[6] = tested on: UACC-62 melanoma
[7] = tested on: HL-60(TB) leukemia
[8] = tested on: HCT-116 colon
[9] = tested on: KM12 colon
[10] = tested on: OVCAR-3 ovarian
[11] = tested on: SK-MEL-5 melanoma
[12] = tested on: LXFL 529 NSCLC
[13] = tested on: SK-OV-3 ovarian
[14] = tested on: OVCAR-8 ovarian
[15] = tested on: LOX IMVI melanoma
[16] = tested on: SNB-78 CNS
[17] = tested on: SR leukemia
[18] = tested on: XF 498 CNS
[19] = tested on: ACHN renal
[20] = tested on: MOLT-4 leukemia
[21] = tested on: IGROV1 ovarian
[22] = tested on: OVCAR-5 ovarian
[23] = tested on: K-562 leukemia
[24] = tested on: SK-MEL-28 melanoma
[25] = tested on: HOP-62 NSCLC
[26] = tested on: SNB-75 CNS
[27] = tested on: SW-620 colon
[28] = tested on: UACC-257 melanoma
[29] = tested on: CCRF-CEM leukemia
[30] = tested on: SF-268 CNS
[31] = tested on: U251 CNS
[32] = tested on: NCI-H460 lung
[33] = tested on: A549 NSCLC
[34] = tested on: DLD-1 colon
[35] = tested on: RPMI-8226 leukemia
[36] = tested on: RXF 393 renal
[37] = tested on: EKVX NSCLC
[38] = tested on: TK-10 renal
[39] = tested on: HCC-2998 colon
[40] = tested on: NCI-H226 lung
[41] = tested on: COLO 205 colon
[42] = tested on: M14 melanoma
[43] = tested on: SF-295 CNS
[44] = tested on: DMS 273 small cell lung
[45] = tested on: HT29 colon
[46] = tested on: HOP-18 NSCLC
[47] = tested on: M19-MEL melanoma
[48] = tested on: MALME-3M melanoma
[49] = tested on: UO-31 renal
[50] = tested on: NCI-H522 lung
[51] = tested on: NCI-H23 lung
[52] = tested on: OVCAR-4 ovarian
[53] = tested on: DMS 114 small cell lung
[54] = tested on: HCT-15 colon
[55] = tested on: SNB-19 CNS
[56] = tested on: HOP-92 NSCLC
[57] = tested on: SK-MEL-2 melanoma
[58] = tested on: CAKI-1 renal

Measured: TGI

COc1ccccc1N=Nc1c(-c2ccccc2)nn(C(=O)CC(=O)Nc2ccccc2Cl)c1-c1ccccc1
not listed: [56] | [57] | [58]
> 100 µM: all other assays above

CN(C)C=C1C(=O)N(C)C(=O)N(C)C1=O
not listed: [13] | [21] | [25] | [30] | [41] | [50]
> 100 µM: all other assays above

From PubChem BioAssay (NCI)
